# Laboratory results as given in PMC4424350, “Unraveling the Specific Regulation of the Central Pathway for Anaerobic Degradation of 3-Methylbenzoate” (The Journal of Biological Chemistry, 2015).
# Molecular target: T1, MbdR (MbdR-His6) (Azoarcus sp., UniProt Z9KMW0QJC7)
# T1 construct: full-length, C-terminal His6 (pETmbdR), expressed in E. coli BL21(DE3), Ni-NTA; dimer in solution
# Experiment: gel retardation (release of promoter DNA); DNase I footprinting; in vitro transcription
# Type: binding
# Settings: inducer; 30 nM MbdR-His6 with PO or PB1 DNA probe, 20 mM Tris-HCl pH 7.5, 50 mM KCl, 30 °C
smiles,measurement,value
Cc1cccc(C(=O)SCCNC(=O)CCNC(=O)[C@H](O)C(C)(C)COP(=O)(O)OP(=O)(O)OC[C@H]2O[C@@H](n3cnc4c(N)ncnc43)[C@H](O)[C@@H]2OP(=O)(O)O)c1 [3-methylbenzoyl-CoA],gel retardation (release of promoter DNA); DNase I footprinting; in vitro transc,3-methylbenzoyl-CoA inhibited the interaction of MbdR with the PO and PB1 probes
